# Results published in patent publication US20120065187A1 (ALCON RESEARCH, LTD, priority 2008, published 2012).
# Structures can show the parent of a compound that is named as a salt.
# Experiments:
# human H4 = molecular target: T1, human H4 (Homo sapiens, UniProt Q9H3N8); experiment: In vitro histamine receptor cell-based assay (aequorin bioluminescence), H4 antagonism; settings: CHO-K1 cells expressing human H4, aequorin and Gα16; histamine at EC80; read-out: H4 Antagonist EC50
# T1 construct: host or cells: CHO-K1
# How it was run: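 Antagonism read as loss of aequorin luminescence after histamine (EC80 final) addition, following 15 min room-temperature compound pretreatment of coelenterazine-h-loaded (5 μM) CHO-K1 cells co-expressing human H4 and Gα16. Efficacy given relative to 10 μM JNJ7777120; agonism excluded in separate no-histamine runs.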
# human H1 = molecular target: T2, human H1 (Homo sapiens, UniProt P35367); experiment: In vitro histamine receptor cell-based assay (aequorin bioluminescence), H1 antagonism; settings: CHO-K1 cells expressing human H1 and aequorin; histamine at EC80; read-out: H1 Antagonist EC50
# T2 construct: host or cells: CHO-K1
# How it was run: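 Antagonism read as drop in aequorin luminescence after histamine challenge at a predetermined EC80, following 15 min compound pretreatment at room temperature. Cells: CHO-K1 carrying human H1, or H4 with Gα16; signal as AUC or amplitude, normalised to 10 μM diphenhydramine (H1) or JNJ7777120 (H4).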
# [1] = system: Hartley VAF outbred guinea pigs; experiment: Allergic conjunctivitis in passively sensitized guinea pigs (conjunctival EPO activity); type: in vivo; parameters: key: +: a 0.01% bid dose was statistically equivalent to dexamethasone with respect to reduction of EPO activity; −: the compound was statistically inferior to dexamethasone and not different than vehicle; settings: reduction of conjunctival EPO activity vs dexamethasone; for BID activity: 0.01% bid topical, 1 hour prior to and 8 hours after ovalbumin challenge; for QD activity: ≦0.1% qd topical, 1 hour prior to ovalbumin challenge
# Description: Male Hartley VAF outbred guinea pigs were passively sensitized to ovalbumin by a single OD subconjunctival injection of undiluted guinea pig anti-ovalbumin antiserum 24 hours before OD topical challenge with 500 μg ovalbumin in saline. Control animals were injected with saline only and challenged with ovalbumin. To determine acute phase drug efficacy, 30 min after challenge animals were clinically scored by a masked observer for severity of signs of conjunctivitis based on a standard scale. Test compounds were administered topically 1 hour prior to challenge (QD protocol), or 1 hour prior to challenge and again 8 hours after challenge (BID protocol). Twenty-four hours after challenge, animals were euthanized and conjunctivae were harvested for determination of tissue eosinophil peroxidase (EPO) concentration as a marker of allergic inflammation. Homogenates of freshly collected tissues were prepared by shaking the tissues in 2 mL round-bottom tubes containing 0.5 mL of homogenization buffer (50 mM Tris HCl, pH 8.0, 6 mM KBr) and one 5-mm stainless steel bead on a Qiagen TissueLyser at 30 Hz for 5 min. Homogenates were frozen and thawed once, then centrifuged at 10,000 rpm for 5 min. EPO activity in supernatants was measured by reacting diluted homogenates with a solution of 6 mM o-phenylenediamine substrate and 8.8 mM H2O2 in homogenization buffer for 3 min. The reaction was stopped with 4M H2SO4 and absorbances were measured at […] on a spectrophotometric plate reader. Total EPO in samples was calculated from a standard curve of recombinant human EPO in each assay. EPO activity was normalized to total protein concentration (Pierce BCA assay) in supernatants. Background EPO activity was determined from the unsensitized, antigen-challenged control group. Percent inhibition was calculated from the sensitized, antigen-challenged, vehicle-treated control group in each experiment. Ovalbumin-injected animals dosed topically with 0.1% w/v dexamethasone (dex) served as positive control. Groups were compared by ANOVA with Dunnett's or Tukey's post-hoc tests where appropriate with significance assigned at the 95% confidence level.
# The table below summarizes the results.
# T2 sequence (P35367 whole entry): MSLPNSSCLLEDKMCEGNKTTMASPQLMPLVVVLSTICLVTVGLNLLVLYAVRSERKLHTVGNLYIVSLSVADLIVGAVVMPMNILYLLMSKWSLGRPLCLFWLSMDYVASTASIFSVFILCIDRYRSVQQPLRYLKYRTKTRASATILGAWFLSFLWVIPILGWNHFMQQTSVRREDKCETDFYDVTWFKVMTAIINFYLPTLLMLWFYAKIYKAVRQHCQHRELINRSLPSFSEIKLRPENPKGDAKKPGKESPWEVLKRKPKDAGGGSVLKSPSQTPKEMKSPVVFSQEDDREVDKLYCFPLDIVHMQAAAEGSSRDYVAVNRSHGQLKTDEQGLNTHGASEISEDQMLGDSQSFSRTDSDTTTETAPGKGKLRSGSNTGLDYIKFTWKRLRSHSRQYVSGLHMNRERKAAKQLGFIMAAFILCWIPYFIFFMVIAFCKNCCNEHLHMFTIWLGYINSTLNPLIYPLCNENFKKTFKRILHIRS
EC50 (human H4) [µM],EC50 (human H1) [µM],Structure (SMILES),BID activity [1],QD activity [1]
< 10,> 10,"Cc1nc2c3cc(Cl)c(F)cc3nc(N3CCN(C)CC3)n2n1 [Example 95, 9-Chloro-8-fluoro-2-methyl-5-(4-methylpiperazin-1-yl)-[1,2,4]triazolo[1,5-c]quinazoline]",−,
< 10,< 10,"Clc1ccc2nc(N3CCNCC3)c3nc[nH]c3c2c1 [Example 161, 8-Chloro-4-(piperazin-1-yl)-1H-imidazo[4,5-c]quinoline]",+,
< 10,> 10,"Cc1nc2c3cc(OC(F)(F)F)ccc3nc(N3CCN(C)CC3)n2n1.Cl [Example 133, 2-methyl-5-(4-methylpiperazin-1-yl)-9-(trifluoromethoxy)-[1,2,4]triazolo[1,5-c]quinazoline hydrochloride]",,−
< 10,> 10,"Cc1ccc2nc(N3CCN(C)CC3)n3nc(C)nc3c2c1 [Example 99, 2,9-Dimethyl-5-(4-methylpiperazin-1-yl)-[1,2,4]triazolo[1,5-c]quinazoline]",+,−
< 10,> 10,"CN1CCN(c2nc3ccc(C(F)(F)F)cc3n3cnnc23)CC1 [Example 23, 4-(4-methylpiperazin-1-yl)-8-(trifluoromethyl)-[1,2,4]triazolo[4,3-a]quinoxaline]",+,
< 10,> 10,"Cc1nc2c3cc(C(F)(F)F)ccc3nc(N3CCNCC3)n2n1 [Example 104, 2-Methyl-5-(piperazin-1-yl)-9-(trifluoromethyl)-[1,2,4]triazolo[1,5-c]quinazoline]",,−
< 10,> 10,"Fc1cc2nc(N3CCNCC3)c3nncn3c2cc1C(F)(F)F [Example 41, 7-Fluoro-4-(piperazin-1-yl)-8-(trifluoromethyl)-[1,2,4]triazolo[4,3-a]quinoxaline]",,−
< 10,> 10,"Cc1nc2c3cc(C(F)(F)F)c(Cl)cc3nc(N3CCN(C)CC3)n2n1 [Example 122, 8-chloro-2-methyl-5-(4-methylpiperazin-1-yl)-9-(trifluoromethyl)-[1,2,4]triazolo[1,5-c]quinazoline]",,
< 10,> 10,"Cc1nc2c3ccc(Cl)cc3nc(N3CCN(C)CC3)n2n1 [Example 105, 8-Chloro-2-methyl-5-(4-methylpiperazin-1-yl)-[1,2,4]triazolo[1,5-c]quinazoline]",,
< 10,> 10,"Fc1cc2nc(N3CCNCC3)c3nnnn3c2cc1C(F)(F)F [Example 186, 7-fluoro-4-(piperazin-1-yl)-8-(trifluoromethyl)tetrazolo[1,5-a]quinoxaline]",,
< 10,> 10,"Cc1nc2c3cc(Cl)c(C(F)(F)F)cc3nc(N3CCN(C)CC3)n2n1 [Example 131, 9-chloro-2-methyl-5-(4-methylpiperazin-1-yl)-8-(trifluoromethyl)-[1,2,4]triazolo[1,5-c]quinazoline hydrochloride]",,
> 10,> 10,"Fc1cc(Cl)cc2nc(N3CCNCC3)c3nncn3c12 [Example 192, 7-chloro-9-fluoro-4-(piperazin-1-yl)-[1,2,4]triazolo[4,3-a]quinoxaline]",,
< 10,> 10,"Fc1cc2nc(N3CCNCC3)c3nnnn3c2cc1F [Example 191, 7,8-difluoro-4-(piperazin-1-yl)tetrazolo[1,5-a]quinoxaline]",,
> 10,> 10,"Cc1cn2c(n1)c(N1CCNCC1)nc1ccc(Cl)cc12 [Example 10, 8-Chloro-2-methyl-4-(piperazin-1-yl)imidazo[1,2-a]quinoxaline]",,
< 10,> 10,"CCc1ccc2nc(N3CCNCC3)c3nncn3c2c1 [Example 91, 8-ethyl-4-(piperazin-1-yl)-[1,2,4]triazolo[4,3-a]quinoxaline]",,
< 10,> 10,"Cc1nc2c3ccc(Cl)cc3nc(N3CCNCC3)n2n1 [Example 106, 8-Chloro-2-methyl-5-(piperazin-1-yl)-[1,2,4]triazolo[1,5-c]quinazoline]",,

# More lines, now with the values behind:
Structure (SMILES),EC50 (human H4) [µM],EC50 (human H1) [µM],BID activity [1],QD activity [1]
"CN1CCN(c2nc3ccc(Cl)cc3c3cn(C)nc23)CC1 [Example 150, 8-Chloro-2-methyl-4-(4-methylpiperazin-1-yl)-2H-pyrazolo[3,4-c]quinoline]",< 10,> 10,−,
"Cc1ccc2nc(N3CCN(C)CC3)c3nncn3c2c1 [Example 21, 8-Methyl-4-(4-methylpiperazin-1-yl)-[1,2,4]triazolo[4,3-a]quinoxaline]",< 10,> 10,−,
"CN1CCN(c2nc3cc(F)c(F)cc3n3cnnc23)CC1 [Example 37, 7,8-difluoro-4-(4-methylpiperazin-1-yl)-[1,2,4]triazolo[4,3-a]quinoxaline]",< 10,> 10,+,
"CN1CCN(c2nc3cc(F)c(Cl)cc3n3cnnc23)CC1 [Example 31, 8-chloro-7-fluoro-4-(4-methylpiperazin-1-yl)-[1,2,4]triazolo[4,3-a]quinoxaline]",< 10,> 10,,−
"Cc1nc2c(N3CCN(C)CC3)nc3ccc(Cl)cc3c2o1 [Example 143, 8-chloro-2-methyl-4-(4-methylpiperazin-1-yl)oxazolo[4,5-c]quinoline]",< 10,< 10,+,−
"Fc1cc2nc(N3CCNCC3)c3nncn3c2cc1Cl [Example 32, 8-chloro-7-fluoro-4-(piperazin-1-yl)-[1,2,4]triazolo[4,3-a]quinoxaline]",< 10,> 10,+,
"CN1CCN(c2nc3ccc(Cl)cc3n3ccnc23)CC1 [Example 7, 8-Chloro-4-(4-methylpiperazin-1-yl)imidazo[1,2-a]quinoxaline]",< 10,> 10,−,
"CN1CCN(c2nc3ccc(Cl)cc3c3c2ncn3C)CC1 [Example 159, 8-Chloro-1-methyl-4-(4-methylpiperazin-1-yl)-1H-imidazo[4,5-c]quinoline]",< 10,> 10,,
"C/C=C/c1ccc2nc(N3CCN(C)CC3)c3nncn3c2c1 [Example 174, (E)-4-(4-methylpiperazin-1-yl)-8-(prop-1-enyl)-[1,2,4]triazolo[4,3-a]quinoxaline]",< 10,> 10,,
"CNCCOc1nc2ccc(Cl)cc2n2cnnc12 [Example 80, 2-(8-chloro-[1,2,4]triazolo[4,3-a]quinoxalin-4-yloxy)-N-methylethanamine]",> 10,> 10,,
"CN1CCN(c2nc3ccccc3n3cnnc23)CC1 [Example 58, 4-(4-methylpiperazin-1-yl)-[1,2,4]triazolo[4,3-a]quinoxaline]",< 10,> 10,,
"NC1CN(c2nc3ccc(Cl)cc3n3cnnc23)C1 [Example 63, 1-(8-chloro-[1,2,4]triazolo[4,3-a]quinoxalin-4-yl)azetidin-3-amine]",< 10,> 10,,
"CN1CCN(c2nc3cc(Br)ccc3n3cnnc23)CC1 [Example 193, 7-bromo-4-(4-methylpiperazin-1-yl)-[1,2,4]triazolo[4,3-a]quinoxaline]",< 10,> 10,,
"Clc1ccc2nc(N3CC4CCCNC4C3)c3nncn3c2c1 (stereo not drawn) [Example 61, 8-chloro-4-(tetrahydro-1H-pyrrolo[3,4-b]pyridin-6(2H,7H,7aH)-yl)-[1,2,4]triazolo[4,3-a]quinoxaline]",< 10,> 10,,
"CN1CCN(c2nc3cc(Cl)c(F)cc3n3cnnc23)CC1 [Example 33, 7-chloro-8-fluoro-4-(4-methylpiperazin-1-yl)-[1,2,4]triazolo[4,3-a]quinoxaline]",< 10,> 10,,
